Test results: patent US20220242827A1, “PHENYLMETHYLPYRAZOLONE COMPOUND HAVING A NOVEL CRYSTAL FORM, AND METHOD FOR PRODUCING SAME” (SIA EMTEKO HOLDING, priority 2019, published 2022)
≈ marks a conversion by molar mass, not a printed value.

Legend:
Type in all cases: physicochemical
[1] = Electrostatic adhesion model experiment in 316L stainless steel tank; settings: for surface area of the tank covered with the FMP crystals: 316L stainless steel tank, after thorough mixing and release
Description: The following model experiment was performed to test the ability of electrostatic adhesion of the new polymorphic form. The FMP sample was placed in a 316L stainless steel tank, similar to the steel used to make working parts of industrial pharmaceutical equipment. After thorough mixing in the tank, the PMF was released from it and the surface area of the tank covered with the FMP crystals was measured. For the known polymorphic form, this figure was 19.5%, for the new form—12.8%, which is about one third less.

[2] = Storage stability in climate chamber at 25° C. and 60% relative humidity for 24 months; settings: for pH: normalization 4.5-5.5; for Quantification: normalization more than 99.0; for Impurity 1: normalization not more than 0.1%; for Sum of impurities: normalization not more than 0.3%; for stability on storage (content of the basic substance, content of impurities, pH): 60% humidity
Description: The improved stability of the resulting polymorphic form was confirmed by experiments in a climate chamber at 25° C. and 60% humidity.
Comparison of Critical Quality Indicators of Known and Novel Polymorphic Forms of FMP After 24 Months of Storage at 25° C. and 60% Relative Humidity

Solubility in water = assay: Solubility in water
Description: The solubility of the obtained samples was checked by dissolving in water with vigorous stirring for 30 minutes at 25° C.

[3] = 24 months at 25° C. and 60% relative humidity

surface area of the tank covered with the FMP crystals ([1]; listed as known polymorphic form) [%] | Description ([2]; 0 months) | pH ([2]; 0 months) | Quantification ([2]; 0 months) [%] | Impurity 1 ([2]; 0 months) [%] | Sum of impurities ([2]; 0 months) [%] | Description [2, 3] | pH [2, 3] | Quantification [2, 3] [%] | Impurity 1 [2, 3] [%] | Sum of impurities [2, 3] [%] | solubility in water (Solubility in water; dissolving in water with vigorous stirring for 30 minutes at 25° C., listed as known forms) | surface area of the tank covered with the FMP crystals [1] [%] | electrostatic index (comparison among the samples) ([1]; among samples #1 to #6) | stability on storage (content of the basic substance, content of impurities, pH) ([2]; 24 months, 25° C.) | stability on storage (content of the basic substance, content of impurities, pH) ([2]; 24 months, 25° C., listed as resulting polymorphic form) | rate of impurity formation ([2]; 24 months, 25° C., 60% relative humidity, versus known form) | solubility (comparison among the samples) (Solubility in water; among samples #1 to #6) | solubility at 30 min (Solubility in water; water, 25 °C, thermodynamic from solid, dissolving in water with vigorous stirring for 30 minutes at 25° C.) [µg/mL] | SMILES
19.5 | White | 4.7 | 99.8 | 0.02 | 0.07 | White | 4.6 | 99.6 | 0.08 | 0.18 | less than 0.2 mg/ml |  |  |  |  |  |  |  | CC1=NN(c2ccccc2)C(=O)C1 [Known form of FMP, 1-phenyl-3-methyl-5-pyrazolone, reference compound]
 | White | 4.8 | 99.8 | 0.03 | 0.09 | White | 4.8 | 99.7 | 0.04 | 0.10 |  | 12.8 | best | more stable | did not change its key characteristics | much lower | best | 300 (≈ 1720 µM) | CC1=NN(c2ccccc2)C(=O)C1 [A new form of FMP, 1-phenyl-3-methyl-5-pyrazolone]
